Measured values published in US8349811B2, “Stable 6-methoxy-2′,3′-dideoxyguanosine, method for preparing the same and pharmaceutical composition containing the same” (Nanjing Changao Pharmaceutical Science & Technology Co., …, priority 2008, dated 2013).
“Also recorded” adds a separate entry of the source.

Legend:
[1] = Water content of the product of the Examples by the Karl-Fischer method; format: physicochemical; conditions: after water absorption (Examples 1-3) or vacuum drying (Examples 4-5)
Protocol: 1 kg of powder of 6-methoxy-2′,3′-dideoxyguanosine with 2.7% (wt %) of water content is laid in a plate flat and placed in the environment with the temperature of 5 degrees centigrade and the humidity of 60% (wt %), is mixed every 1-4 hours, and the required product is obtained after 48 hours.
0.5 kg of powder of 6-methoxy-2′,3′-dideoxyguanosine with 1.5% (wt %) of water content is laid in a plate flat and placed in the environment with the temperature of 15 degrees centigrade and the humidity of 40% (wt %), is mixed every 3-5 hours, and the required product is obtained after 36 hours.
0.5 kg of powder of 6-methoxy-2′,3′-dideoxyguanosine with 3.2% (wt %) of water content is laid in a plate flat and placed in the environment with the temperature of 0 degrees centigrade and the humidity of 90% (wt %), is mixed every 2 hours, and the required product is obtained after 36 hours.
1.5 kg of powder of 6-methoxy-2′,3′-dideoxyguanosine with 60.5% (wt %) of water content is laid in a plate flat and placed in a vacuum drying box, anhydrous calcium chloride is taken as a drying agent, vacuumizing is carried out by a water pump at the temperature of 25 degrees centigrade, decompression drying is further carried out, and the required product is obtained after 48 hours.
1.0 kg of powder of 6-methoxy-2′,3′-dideoxyguanosine with 40.5% (wt %) of water content is laid in a plate flat and placed in a vacuum drying box, phosphorus pentoxide is taken as a drying agent, vacuum decompression drying is carried out at the temperature of 15 degrees centigrade, and the required product is obtained after 38 hours.

[2] = Moisture absorption and handling under the general conditions; format: physicochemical; conditions: for moisture absorption: general conditions
[3] = Water-absorbing test in different humidity environments at 5 degrees centigrade; format: physicochemical
Protocol: (§1) Table 1 is a comparison table, wherein, the 6-methoxy-2′,3′-dideoxyguanosine with less than 6% (wt %) of water content is placed in different humidity environments at 5 degrees centigrade for carrying out water-absorbing tests, the products at the corresponding time points are placed in the environment with the temperature of 30 degrees centigrade and the humidity of 90% (wt %) for carrying out the acceleration test inspection, the sampling inspection are carried out at the 15th day, the 30th day and the 60th day respectively, and the inspection indexes comprise the character and the water content.

[4] = Acceleration test inspection at 30 degrees centigrade and humidity 90% (character and water content); format: physicochemical; conditions: for Acceleration Test Inspection, Water Content / Acceleration Test Inspection, Character: 30 degrees centigrade, humidity 90%
Protocol: as §1

[5] = test system: HIV (Human Immunodeficiency Virus); assay: Anti-HIV experimental study of the inventors
[6] = Metabolism in plasma to ddG; format: in vitro ADME; conditions: metabolite 2′,3′-dideoxyguanosine (ddG)
[7] = test system: hepatitis B virus (HBV); conditions: reported in Chinese patent CN1493301A; cited from earlier work
[8] = test system: DHBV DNA replication; assay: Suppression of DHBV DNA replication; conditions: competition with ddCTP
[9] = product of placement time 14 hours, 15th Day
[10] = product of placement time 14 hours, 30th Day
[11] = product of placement time 14 hours, 60th Day
[12] = product of placement time 2 days, 15th Day
[13] = product of placement time 2 days, 30th Day
[14] = product of placement time 2 days, 60th Day
[15] = product of placement time 3 days, 15th Day
[16] = product of placement time 3 days, 30th Day
[17] = product of placement time 3 days, 60th Day
[18] = product of placement time 4 days, 15th Day
[19] = product of placement time 4 days, 30th Day
[20] = product of placement time 4 days, 60th Day
[21] = product of placement time 10 days, 15th Day
[22] = product of placement time 10 days, 30th Day
[23] = product of placement time 10 days, 60th Day

For `COc1nc(N)nc2c1ncn2[C@H]1CC[C@@H](CO)O1` [Example 4, 6-methoxy-2′,3′-dideoxyguanosine], the “water content of the required product” value [1] was 22.5 % (wt %).
In the case of `COc1nc(N)nc2c1ncn2[C@H]1CC[C@@H](CO)O1` [stable 6-methoxy-2′,3′-dideoxyguanosine, 6-methoxy-2′,3′-dideoxyguanosine], the moisture absorption ([2]; stable form, water content 6-30% (wt %)) is reported as “difficult to absorb the moisture” and the stability ([2]; stable form, water content 6-30% (wt %), room temperature) is reported as “very stable at room temperature”.
For `COc1nc(N)nc2c1ncn2[C@H]1CC[C@@H](CO)O1` [Example 1, 6-methoxy-2′,3′-dideoxyguanosine], the “water content of the required product” value [1] was 23.5 % (wt %).
In the case of `COc1nc(N)nc2c1ncn2[C@H]1CC[C@@H](CO)O1` [Example 3, 6-methoxy-2′,3′-dideoxyguanosine], the “water content of the required product” value [1] is reported as 23.2 % (wt %).
With `COc1nc(N)nc2c1ncn2[C@H]1CC[C@@H](CO)O1` [Example 2, 6-methoxy-2′,3′-dideoxyguanosine] the “water content of the required product” value [1] was 12.5 % (wt %).
With `COc1nc(N)nc2c1ncn2[C@H]1CC[C@@H](CO)O1` [Example 5, 6-methoxy-2′,3′-dideoxyguanosine] the “water content of the required product” value [1] was 18.5 % (wt %).
With `COc1nc(N)nc2c1ncn2[C@H]1CC[C@@H](CO)O1` [6-methoxy-2′,3′-dideoxyguanosine] the “Water Content When Placed in Different Humidity Environments” value ([3]; Humidity 40%, placement time 0 hour) was 2.7 wt %, the “Water Content When Placed in Different Humidity Environments” value ([3]; Humidity 40%, placement time 1 hour) was 4.3 wt % and the “Water Content When Placed in Different Humidity Environments” value ([3]; Humidity 40%, placement time 2 hours) was 5.4 wt %. For the same molecule, the “Water Content When Placed in Different Humidity Environments” value ([3]; Humidity 40%, placement time 14 hours) was 8.7 wt %, the “Water Content When Placed in Different Humidity Environments” value ([3]; Humidity 40%, placement time 2 days) was 12.6 wt % and the “Water Content When Placed in Different Humidity Environments” value ([3]; Humidity 40%, placement time 3 days) was 21.8 wt %. For the same molecule, the “Water Content When Placed in Different Humidity Environments” value ([3]; Humidity 40%, placement time 4 days) was 22.4 wt %, the “Water Content When Placed in Different Humidity Environments” value ([3]; Humidity 40%, placement time 10 days) was 21.8 wt % and the “Water Content When Placed in Different Humidity Environments” value ([3]; Humidity 60%, placement time 0 hour) was 2.7 wt %. For the same molecule, the “Water Content When Placed in Different Humidity Environments” value ([3]; Humidity 60%, placement time 1 hour) was 4.7 wt %, the “Water Content When Placed in Different Humidity Environments” value ([3]; Humidity 60%, placement time 2 hours) was 5.7 wt % and the “Water Content When Placed in Different Humidity Environments” value ([3]; Humidity 60%, placement time 14 hours) was 8.6 wt %. For the same molecule, the “Water Content When Placed in Different Humidity Environments” value ([3]; Humidity 60%, placement time 2 days) was 16.3 wt %, the “Water Content When Placed in Different Humidity Environments” value ([3]; Humidity 60%, placement time 3 days) was 22.5 wt % and the “Water Content When Placed in Different Humidity Environments” value ([3]; Humidity 60%, placement time 4 days) was 23.64 wt %. For the same molecule, the “Water Content When Placed in Different Humidity Environments” value ([3]; Humidity 60%, placement time 10 days) was 23.5 wt %, the “Water Content When Placed in Different Humidity Environments” value ([3]; Humidity 90%, placement time 0 hour) was 2.7 wt % and the “Water Content When Placed in Different Humidity Environments” value ([3]; Humidity 90%, placement time 1 hour) was 5.1 wt %. For the same molecule, the “Water Content When Placed in Different Humidity Environments” value ([3]; Humidity 90%, placement time 2 hours) was 5.8 wt %, the “Water Content When Placed in Different Humidity Environments” value ([3]; Humidity 90%, placement time 14 hours) was 8.9 wt % and the “Water Content When Placed in Different Humidity Environments” value ([3]; Humidity 90%, placement time 2 days) was 15.9 wt %. The “Water Content When Placed in Different Humidity Environments” value ([3]; Humidity 90%, placement time 3 days) was 22.7 wt %, the “Water Content When Placed in Different Humidity Environments” value ([3]; Humidity 90%, placement time 4 days) was 22.8 wt % and the “Water Content When Placed in Different Humidity Environments” value ([3]; Humidity 90%, placement time 10 days) was 21.9 wt %. For the same molecule, the “Acceleration Test Inspection, Water Content” value ([4]; product of placement time 1 hour, 15th Day) was 23.4 wt %, the “Acceleration Test Inspection, Water Content” value ([4]; product of placement time 1 hour, 30th Day) was 22.4 wt % and the “Acceleration Test Inspection, Water Content” value ([4]; product of placement time 1 hour, 60th Day) was 21.8 wt %. The “Acceleration Test Inspection, Water Content” value ([4]; product of placement time 2 hours, 15th Day) was 22.9 wt %, the “Acceleration Test Inspection, Water Content” value ([4]; product of placement time 2 hours, 30th Day) was 22.1 wt % and the “Acceleration Test Inspection, Water Content” value ([4]; product of placement time 2 hours, 60th Day) was 21.5 wt %. For the same molecule, the “Acceleration Test Inspection, Character” value [4, 9] was “Powder”, the “Acceleration Test Inspection, Water Content” value [4, 9] was 22.7 wt % and the “Acceleration Test Inspection, Character” value [4, 10] was “Powder”. For the same molecule, the “Acceleration Test Inspection, Water Content” value [4, 10] was 22.0 wt %, the “Acceleration Test Inspection, Character” value [4, 11] was “Powder” and the “Acceleration Test Inspection, Water Content” value [4, 11] was 21.4 wt %. For the same molecule, the “Acceleration Test Inspection, Character” value [4, 12] was “Powder”, the “Acceleration Test Inspection, Water Content” value [4, 12] was 23.0 wt % and the “Acceleration Test Inspection, Character” value [4, 13] was “Powder”. For the same molecule, the “Acceleration Test Inspection, Water Content” value [4, 13] was 22.5 wt %, the “Acceleration Test Inspection, Character” value [4, 14] was “Powder” and the “Acceleration Test Inspection, Water Content” value [4, 14] was 21.6 wt %. The “Acceleration Test Inspection, Character” value [4, 15] was “Powder”, the “Acceleration Test Inspection, Water Content” value [4, 15] was 22.1 wt % and the “Acceleration Test Inspection, Character” value [4, 16] was “Powder”. For the same molecule, the “Acceleration Test Inspection, Water Content” value [4, 16] was 21.8 wt %, the “Acceleration Test Inspection, Character” value [4, 17] was “Powder” and the “Acceleration Test Inspection, Water Content” value [4, 17] was 21.5 wt %. The “Acceleration Test Inspection, Character” value [4, 18] was “Powder”, the “Acceleration Test Inspection, Water Content” value [4, 18] was 22.9 wt % and the “Acceleration Test Inspection, Character” value [4, 19] was “Powder”. The “Acceleration Test Inspection, Water Content” value [4, 19] was 21.8 wt %, the “Acceleration Test Inspection, Character” value [4, 20] was “Powder” and the “Acceleration Test Inspection, Water Content” value [4, 20] was 21.8 wt %. The “Acceleration Test Inspection, Character” value [4, 21] was “Powder”, the “Acceleration Test Inspection, Water Content” value [4, 21] was 22.0 wt % and the “Acceleration Test Inspection, Character” value [4, 22] was “Powder”. For the same molecule, the “Acceleration Test Inspection, Water Content” value [4, 22] was 21.7 wt %, the “Acceleration Test Inspection, Character” value [4, 23] was “Powder” and the “Acceleration Test Inspection, Water Content” value [4, 23] was 21.9 wt %. The character ([4]; water content greater than 6% (wt %), summary of Table 1) was “basically kept unchanged”, the anti-HIV activity [5] was “plays the role of fighting against the HIV” and the metabolism in plasma [6] was “rapidly metabolized in plasma to 2′,3′-dideoxyguanosine (ddG)”. The “behaviour during the smashing process” value ([2]; water content higher than 30% (wt %)) was “easy to be bonded into blocks during the smashing process”, the moisture absorption ([2]; water content lower than 6% (wt %)) was “easy to absorb the water; also recorded: very easy to absorb moisture and be blocked” and the anti-HBV activity [7] was “anti-HBV activity”.
In the case of `Nc1nc2c(ncn2[C@H]2CC[C@@H](COP(=O)(O)OP(=O)(O)OP(=O)(O)O)O2)c(=O)[nH]1` [ddGTP], the “suppression of DHBV DNA replication” value [8] is reported as “can selectively compete with the ddCTP for suppressing the DHBV DNA replication”.
